Assay results: patent US7163933B2, “Treating agent for Paget's disease of bone” (Teijin Limited, priority 2002, dated 2007)

Columns and labels:
[1] = system: human 25-hydroxyvitamin D3-24-hydroxylase gene promoter; experiment: 25-hydroxyvitamin D3-24-hydroxylase (24-OHase) luciferase reporter assay in NIH3T3 cells; type: cell-based, mouse
From the text: The promoter region of the human 25-hydroxyvitamin D3-24-hydroxylase gene(−186/−5), which contains two vitamin D responsive elements (VDRE) was cloned into a luciferase reporter vector pGL3-Basic Vector (Promega; Madison, Wis.). This plasmid construct was cotransfected with a β-galactosidase expression plasmid into pcDNA3.1-Neo-hTAFII-17-CDS (Example 2) or its empty vector-transfected mouse fibroblastic cell line NIH3T3 cells by lipofection (LipofectAMINE; GIBCO BRL; Grand Island, N.Y.). Sixteen hours after the transfection, vehicle (0.1% ethanol) or 1α,25-(OH)2D3 (10^−10 to 10^−8 M) was added. Forty-eight hours later, the cells were harvested in the cell lysate solution provided with the luciferase assay kit (Promega; Madison, Wis.). The luciferase activities of the cell lysates were measured with the luciferase assay kit according to the manufacturer's instructions and was standardized with the β-galactosidase activities of the same cell lysates determined with a β-galactosidase enzyme assay system (Promega; Madison, Wis.).

TAFII-17 gene = TAFII-17 gene expression (RT-PCR, band density vs β-actin) in bone marrow mononuclear cells from patients with Paget's disease of bone; type: cell-based, human
From the text: (§1) Mononuclear cells were fractionated from bone marrow cells of healthy normal adults and patients with Paget's disease of bone according to a method of Kurihara et al. (Endocrinology, vol. 126, 2733–2741 (1990) and Journal of Clinical Investigation, vol. 105, 606–614 (2000)). Briefly, bone marrow cells were obtained from normal adults and patients with Paget's disease of bone, a mononuclear cell fraction was collected by Hypaque-Ficoll density gradient centrifugation, the cell fraction was washed with α-Minimal Essential Media (α-MEM, GIBCO BRL; Grand Island, N.Y.) 3 times, and the cells were dispersed in α-MEM containing 10% fetal bovine serum (GIBCO BRL; Grand Island, N.Y.). This mononuclear cell suspension was seeded on 100-mm tissue culture plates, the culture plates were kept for 90 minutes at 37° C. in a 5% CO2-air atmosphere, and the non-adherent cells were collected.
Mononuclear cells were prepared from bone marrow collected from patients with Paget's disease of bone according to a method described in Example 1. The collected mononuclear cells were dispersed in an α-MEM culture medium containing 20% horse serum in such a manner that the concentration became 3.3×10^5 cells/ml, seeded on 35-mm tissue culture plates at 3 ml/plate, and cultured for 12 hr at 37° C. in an incubator of 5% CO2-air in the presence of 10^−10 M 1α, 25-dihydroxyvitamin D3 and 10^−8 M Compound 11 (23S isomer) of the present invention singly, or in the presence of 10^−10 M 1α, 25-dihydroxyvitamin D3 and 10^−8 M Compound 11 (23S isomer) together. Subsequently, the cells were collected by centrifuge, RNA was extracted according to a routine procedure after the addition of 1 ml of an RNAzol B solution, and the resulting RNA was converted into cDNA by using a reverse transcriptase. The TAFII-17 gene was subjected to PCR reaction of 35 cycles each consisting of 1 min at 94° C., 1 min at 55° C. and 1 min at 72° C. using 5′-[…]-3′ (SEQ ID NO: 14) (sense) and 5′-[…]-3′(SEQ ID NO: 15) (antisense) as the primers. The PCR products were fractionated by electrophoresis using 2% agarose gel. As a house-keeping gene, β-actin was subjected to PCR reaction in the same manner, and the PCR products were fractionated by electrophoresis using 2% agarose gel. The densities of the bands of the TAFII-17 gene and the β-actin gene were determined by an image analyzer.

[2] = system: bone marrow cells from patients with Paget's disease of bone; experiment: Osteoclast formation in bone marrow cultures from patients with Paget's disease of bone (23C6-positive cells with three or more nuclei); type: cell-based, human
From the text: as §1
Mononuclear cells were fractionated from bone marrow cells of patients with Paget's disease of bone as described in Example 1. The collected mononuclear cells were dispersed in an α-MEM culture medium containing 20% horse serum in such a manner that the concentration became 10^6 cells/ml, and seeded on a 96-well multiplate at 100 μl/well. The suppression effect of Compound 11 (23S isomer) on osteoclast formation in the bone marrow cells of patients with Paget's disease of bone induced by 1α,25-dihydroxyvitamin D3 was evaluated as follows. Into each well, 1α,25-dihydroxyvitamin D3 of various concentrations, Compound 11 (23S isomer) of various concentrations, or a combination of 10^−10 M 1α,25-dihydroxyvitamin D3 and Compound 11 (23S isomer) of various concentrations was added. The culture medium was replaced two times a week, and culture was continued for 3 weeks at 37° C. in an incubator of 5% CO2-air. After the culture, the culture product was subjected to 23C6 antibody (antibody; gift from Dr. Michael A. Horton, Rayne Institute, Bone and Mineral Center, London, United Kingdom) alkaline phosphatase dyeing (VECTASTAIN-ABC-AP kit; Vector Laboratories, Burlingame, Calif.), and the nuclei were dyed with methyl green. Cells that were positive to 23C6 antibody and had three or more nuclei were determined as osteoclast, and the number of all osteoclasts in each well was counted.

[3] = test substance alone at 10^−7 M, 3 weeks culture
[4] = test substance alone at 10^−8 M, 3 weeks culture
[5] = test substance alone at 10^−9 M, 3 weeks culture
[6] = test substance alone at 10^−10 M, 3 weeks culture
[7] = test substance alone at 10^−11 M, 3 weeks culture

C=C1/C(=C\C=C2/CCC[C@]3(C)[C@@H]([C@H](C)CCCC(C)(C)O)CC[C@@H]23)C[C@@H](O)C[C@@H]1O [1α,25-dihydroxyvitamin D3, reference compound]
expression of 25-hydroxyvitamin D3-24-hydroxylase gene (reporter, in words) ([1]; TAFII-17 gene-transfected NIH3T3 cells, 10^−8 M 1α,25-(OH)2D3, 48 h): extremely accelerated | expression of 25-hydroxyvitamin D3-24-hydroxylase gene (reporter, in words) ([1]; TAFII-17 gene-transfected NIH3T3 cells, 10^−9 M 1α,25-(OH)2D3, 48 h): accelerated | expression of 25-hydroxyvitamin D3-24-hydroxylase gene (reporter, in words) ([1]; empty vector-transfected NIH3T3 cells, 10^−8 M 1α,25-(OH)2D3, 48 h): detected | expression of 25-hydroxyvitamin D3-24-hydroxylase gene (reporter, in words) ([1]; empty vector-transfected NIH3T3 cells, 10^−9 M 1α,25-(OH)2D3, 48 h): hardly detected | TAFII-17/β-actin (TAFII-17 gene; 10^−10 M 1α,25-(OH)2D3 singly, 12 hr culture): 100 arbitrary units | concentration exhibiting almost the maximum activity on osteoclast formation ([2]; 1α,25-dihydroxyvitamin D3 alone): ~10^−9 M | osteoclast formation (in words) ([2]; 1α,25-dihydroxyvitamin D3 alone, range of 10^−11 M to 10^−7 M): stimulated osteoclast formation concentration-dependently | osteoclast formation (average number of cells ± S.D.) [2, 3]: 205 ± 6 cells | osteoclast formation (average number of cells ± S.D.) [2, 4]: 206 ± 16 cells | osteoclast formation (average number of cells ± S.D.) [2, 5]: 211 ± 25 cells | osteoclast formation (average number of cells ± S.D.) [2, 6]: 180 ± 15 cells | osteoclast formation (average number of cells ± S.D.) [2, 7]: 134 ± 14 cells

C=C1C[C@H](C[C@H](C)[C@H]2CC[C@H]3/C(=C/C=C4/C[C@@H](O)C[C@H](O)C4=C)CCC[C@]23C)OC1=O (single isomer, unassigned) [Compound 11 (23S isomer)]
expression of TAFII-17 gene (in words) (TAFII-17 gene; 10^−8 M Compound 11 (23S isomer) added alone): remarkably suppressed | TAFII-17/β-actin (TAFII-17 gene; 10^−8 M Compound 11 (23S isomer) singly, 12 hr culture): 6.82 arbitrary units | TAFII-17/β-actin (TAFII-17 gene; 10^−8 M Compound 11 (23S isomer) together with 10^−10 M 1α,25-(OH)2D3, 12 hr culture): 46.89 arbitrary units | expression of TAFII-17 gene accelerated by 10^−10 M 1α,25-(OH)2D3 (in words) (TAFII-17 gene; addition of 10^−8 M Compound 11 (23S isomer)): strongly suppressed | osteoclast formation (average number of cells ± S.D.) ([2]; 10^−6 M compound 11 (23S isomer) + 10^−10 M 1α,25-dihydroxyvitamin D3, 3 weeks culture): 1 ± 1 cells | osteoclast formation (average number of cells ± S.D.) ([2]; 10^−7 M compound 11 (23S isomer) + 10^−10 M 1α,25-dihydroxyvitamin D3, 3 weeks culture): 14 ± 1 cells | osteoclast formation (average number of cells ± S.D.) ([2]; 10^−8 M compound 11 (23S isomer) + 10^−10 M 1α,25-dihydroxyvitamin D3, 3 weeks culture): 63 ± 5 cells | osteoclast formation (average number of cells ± S.D.) ([2]; 10^−9 M compound 11 (23S isomer) + 10^−10 M 1α,25-dihydroxyvitamin D3, 3 weeks culture): 125 ± 5 cells | osteoclast formation (average number of cells ± S.D.) ([2]; 10^−10 M compound 11 (23S isomer) + 10^−10 M 1α,25-dihydroxyvitamin D3, 3 weeks culture): 155 ± 6 cells | osteoclast formation (average number of cells ± S.D.) ([2]; 10^−11 M compound 11 (23S isomer) + 10^−10 M 1α,25-dihydroxyvitamin D3, 3 weeks culture): 170 ± 13 cells | osteoclast formation induced by 10^−10 M 1α,25-dihydroxyvitamin D3 (in words) ([2]; Compound 11 (23S isomer) added simultaneously, range of 10^−11 M to 10^−6 M): suppressed | osteoclast formation (in words) ([2]; Compound 11 (23S isomer) alone at 10^−6 M): did not caused any osteoclast formation | osteoclast formation (in words) ([2]; Compound 11 (23S isomer) by itself): rather inhibited the osteoclast formation | osteoclast formation (average number of cells ± S.D.) ([2]; test substance alone at 10^−6 M, 3 weeks culture): 1 ± 1 cells | osteoclast formation (average number of cells ± S.D.) [2, 3]: 8 ± 2 cells | osteoclast formation (average number of cells ± S.D.) [2, 4]: 9 ± 3 cells | osteoclast formation (average number of cells ± S.D.) [2, 5]: 16 ± 2 cells | osteoclast formation (average number of cells ± S.D.) [2, 6]: 20 ± 4 cells | osteoclast formation (average number of cells ± S.D.) [2, 7]: 29 ± 5 cells
